Activity calls are given as the source filed them. No cut-off for these calls is given here.
Legend:
Alpha-glucosidase [1] = molecular target: T1, Alpha-glucosidase (Saccharomyces cerevisiae S288c, UniProt P53341+P38158+P07265); test: Inhibition of Saccharomyces cerevisiae Alpha-glucosidase using p-NPG as substrate and measured after 10 mins; type: protein assay
Alpha-glucosidase [2] = molecular target: T1, Alpha-glucosidase; test: Noncompetitive inhibition of Saccharomyces cerevisiae Alpha-glucosidase assessed as decrease in Vmax with constant Km using p-NPG as substrate by Lineweaver-Burk plot analysis; type: protein assay
Mus musculus [3] = test: Anti-diabetic activity against streptozocin-induced C57/6J mouse diabetes model assessed as decrease in blood glucose level at 50 mg/kg/day, po administered for 25 days in presence of sucrose by OGTT assay; type: functional, organism-based; conditions: time 25.0 day
L02 = test: Cytotoxicity against human L02 cells upto 32 uM; type: toxicity, cell-based; conditions: l02, 32 µM
Mus musculus [4] = test: Anti-diabetic activity against streptozocin-induced C57/6J mouse diabetes model assessed as decrease in fasting blood glucose at 50 mg/kg/day, po and measured from 2 to 4 weeks; type: functional, organism-based; conditions: time 2-4 weeks
Mus musculus [5] = test: Antihyperlipidemic activity against streptozocin-induced C57/6J mouse assessed as decrease in total cholesterol level at 50 mg/kg/day, po administered for 4 weeks by automatic biochemical analyzer; type: functional, organism-based
Mus musculus [6] = test: Antihyperlipidemic activity against streptozocin-induced C57/6J mouse assessed as decrease in triglyceride level at 50 mg/kg/day, po administered for 4 weeks by automatic biochemical analyzer; type: functional, organism-based
Mus musculus [7] = test: Anti-diabetic activity against streptozocin-induced C57/6J mouse diabetes model assessed as change in fasting blood glucose at 50 mg/kg/day, po and measured after 1 week; type: functional, organism-based; conditions: time 1.0 weeks
Mus musculus [8] = test: Anti-diabetic activity against streptozocin-induced C57/6J mouse diabetes model assessed as change in fasting blood glucose at 100 mg/kg/day, po and measured after 1 week; type: functional, organism-based; conditions: time 1.0 weeks
Mus musculus [9] = test: Anti-diabetic activity against streptozocin-induced C57/6J mouse diabetes model assessed as decrease in fasting blood glucose at 100 mg/kg/day, po and measured from 2 to 4 weeks; type: functional, organism-based; conditions: time 2-4 weeks
Mus musculus [10] = test: Antihyperlipidemic activity against streptozocin-induced C57/6J mouse assessed as decrease in triglyceride level at 100 mg/kg/day, po administered for 4 weeks by automatic biochemical analyzer; type: functional, organism-based
Mus musculus [11] = test: Anti-diabetic activity against streptozocin-induced C57/6J mouse diabetes model assessed as decrease in blood glucose level at 100 mg/kg/day, po administered for 25 days in presence of sucrose by OGTT assay; type: functional, organism-based; conditions: time 25.0 day
Mus musculus [12] = test: Antihyperlipidemic activity against streptozocin-induced C57/6J mouse assessed as decrease in total cholesterol level at 100 mg/kg/day, po administered for 4 weeks by automatic biochemical analyzer; type: functional, organism-based

Row | Structure (SMILES) | IC50 (Alpha-glucosidase [1]) [µM] | other results
1 | CC(C)(C)c1ccc(CSc2nnc(-c3cc4c([nH]c5ccccc54)c(-c4ccccc4)n3)o2)cc1 | 4.95 | 
2 | CS(=O)(=O)c1ccc(CSc2nnc(-c3cc4c([nH]c5ccccc54)c(-c4ccccc4)n3)o2)cc1 | 6.15 | 
3 | FC(F)(F)c1cccc(CSc2nnc(-c3cc4c([nH]c5ccccc54)c(-c4ccccc4)n3)o2)c1 | 12.25 | 
4 | Cc1cccc(CSc2nnc(-c3cc4c([nH]c5ccccc54)c(-c4ccccc4)n3)o2)c1 | 10.4 | 
5 | N#Cc1ccc(CSc2nnc(-c3cc4c([nH]c5ccccc54)c(-c4ccccc4)n3)o2)cc1 | 10.36 | 
6 | Cc1ccc(CSc2nnc(-c3cc4c([nH]c5ccccc54)c(-c4ccccc4)n3)o2)cc1 | 11.86 | 
7 | COC(=O)c1ccccc1CSc1nnc(-c2cc3c([nH]c4ccccc43)c(-c3ccccc3)n2)o1 | 5.58 | 
8 | Fc1ccc(CSc2nnc(-c3cc4c([nH]c5ccccc54)c(-c4ccccc4)n3)o2)cc1 | 14.73 | 
9 | COC(=O)c1ccc(CSc2nnc(-c3cc4c([nH]c5ccccc54)c(-c4ccccc4)n3)o2)cc1 | 4.6 | 
10 | COC(=O)c1cccc(CSc2nnc(-c3cc4c([nH]c5ccccc54)c(-c4ccccc4)n3)o2)c1 | 4.93 | 
11 | Fc1cccc(CSc2nnc(-c3cc4c([nH]c5ccccc54)c(-c4ccccc4)n3)o2)c1 | 15.41 | 
12 | Brc1ccccc1CSc1nnc(-c2cc3c([nH]c4ccccc43)c(-c3ccccc3)n2)o1 | 6.97 | 
13 | Clc1ccc(CSc2nnc(-c3cc4c([nH]c5ccccc54)c(-c4ccccc4)n3)o2)cc1 | 5.31 | 
14 | Fc1ccccc1CSc1nnc(-c2cc3c([nH]c4ccccc43)c(-c3ccccc3)n2)o1 | 14.75 | 
15 | Cc1ccccc1CSc1nnc(-c2cc3c([nH]c4ccccc43)c(-c3ccccc3)n2)o1 | 3.33 | 
16 | FC(F)(F)c1ccccc1CSc1nnc(-c2cc3c([nH]c4ccccc43)c(-c3ccccc3)n2)o1 | 10.59 | 
17 | N#Cc1cccc(CSc2nnc(-c3cc4c([nH]c5ccccc54)c(-c4ccccc4)n3)o2)c1 | 10.42 | 
18 | N#Cc1ccccc1CSc1nnc(-c2cc3c([nH]c4ccccc43)c(-c3ccccc3)n2)o1 | 10.57 | 

Row | Structure (SMILES) | IC50 (Alpha-glucosidase [1]) [µM] | other results
19 | O=[N+]([O-])c1ccc(CSc2nnc(-c3cc4c([nH]c5ccccc54)c(-c4ccccc4)n3)o2)cc1 | 3.1 | Ki (Alpha-glucosidase [2]): 2.86 µM
20 | Brc1cccc(CSc2nnc(-c3cc4c([nH]c5ccccc54)c(-c4ccccc4)n3)o2)c1 | 8.47 | 
21 | FC(F)(F)Oc1cccc(CSc2nnc(-c3cc4c([nH]c5ccccc54)c(-c4ccccc4)n3)o2)c1 | 10.93 | 
22 | Clc1ccc(CSc2nnc(-c3cc4c([nH]c5ccccc54)c(-c4ccccc4)n3)o2)cc1Cl | 9.66 | 
23 | Brc1ccc(CSc2nnc(-c3cc4c([nH]c5ccccc54)c(-c4ccccc4)n3)o2)cc1 | 5.42 | 
24 | Clc1ccccc1CSc1nnc(-c2cc3c([nH]c4ccccc43)c(-c3ccccc3)n2)o1 | 5.46 | 
25 | FC(F)(F)Oc1ccccc1CSc1nnc(-c2cc3c([nH]c4ccccc43)c(-c3ccccc3)n2)o1 | 10.64 | 
26 | FC(F)(F)c1ccc(CSc2nnc(-c3cc4c([nH]c5ccccc54)c(-c4ccccc4)n3)o2)cc1 | 8.48 | 
27 | Fc1ccc(CSc2nnc(-c3cc4c([nH]c5ccccc54)c(-c4ccccc4)n3)o2)cc1F | 9.12 | 
28 | c1ccc(-c2ccc(CSc3nnc(-c4cc5c([nH]c6ccccc65)c(-c5ccccc5)n4)o3)cc2)cc1 | 4.32 | 
29 | c1ccc(-c2ccccc2CSc2nnc(-c3cc4c([nH]c5ccccc54)c(-c4ccccc4)n3)o2)cc1 | 3.07 | Activity (Mus musculus [3]): Active; Activity (L02): Non-Toxic; Activity (Mus musculus [4]): Active; Ki (Alpha-glucosidase [2]): 1.22 µM; Activity (Mus musculus [5]): Active; Activity (Mus musculus [6]): Active; Activity (Mus musculus [7]): inactive
30 | FC(F)(F)Oc1ccc(CSc2nnc(-c3cc4c([nH]c5ccccc54)c(-c4ccccc4)n3)o2)cc1 | 6.44 | 
31 | c1ccc(-c2cccc(CSc3nnc(-c4cc5c([nH]c6ccccc65)c(-c5ccccc5)n4)o3)c2)cc1 | 3.39 | 
32 | Clc1cccc(CSc2nnc(-c3cc4c([nH]c5ccccc54)c(-c4ccccc4)n3)o2)c1 | 12.71 | 
33 | O=[N+]([O-])c1cccc(CSc2nnc(-c3cc4c([nH]c5ccccc54)c(-c4ccccc4)n3)o2)c1 | 5.76 | 
34 | O=[N+]([O-])c1ccccc1CSc1nnc(-c2cc3c([nH]c4ccccc43)c(-c3ccccc3)n2)o1 | 9.57 | 
35 | C[C@H]1O[C@H](O[C@H]2[C@H](O)[C@@H](O)[C@@H](O[C@H]3[C@H](O)[C@@H](O)C(O)O[C@@H]3CO)O[C@@H]2CO)[C@H](O)[C@@H](O)[C@@H]1N[C@H]1C=C(CO)[C@@H](O)[C@H](O)[C@H]1O (some centres undefined) |  | Activity (Mus musculus [8]): inactive; Activity (Mus musculus [9]): Active; Activity (Mus musculus [10]): Active; Activity (Mus musculus [11]): Active; Activity (Mus musculus [12]): Active
36 | c1ccc(CSc2nnc(-c3cc4c([nH]c5ccccc54)c(-c4ccccc4)n3)o2)cc1 | 15.49 | Ki (Alpha-glucosidase [2]): 1.81 µM
